# Data as given in patent US20220106282A1, “TREATMENT FOR BREAST CANCER, INCLUDING TRIPLE-NEGATIVE BREAST CANCER” (priority 2018, published 2022).
# pIC50: −log10 of the molar value. Where “and” joins values, the source holds several entries; their conditions need not be identical. Identical values can stand only once. Entries after “also recorded” stand apart in the source; their conditions may differ.
# Key:
# [1] = test system: human MCF-7 cell culture (breast adenocarcinoma); experiment: Proliferation of MCF-7 cells under sulfatase inhibition; assay type: cell-based; conditions: concentration of 20 μg/ml
# Experimental: The cells were seeded on Carrel vials at 50×10^4 cells per flask. To study the proliferative activity of the cells under conditions of sulfatase inhibition, 24 hours after seeding the culture medium […], and then these tumor cell lines were incubated for various periods of time (24 to 72 hrs). The inhibitor was dissolved in DMSO. […] To exclude the cytotoxic effect of DMSO, a control sample comprising DMSO without sulfatase inhibitor was prepared. To exclude nonspecific detrimental effects of the compounds, normal human skin fibroblasts were used. Then the cells were detached with the versene-trypsin solution (Biolot), plated onto Carrel vials containing a fresh complete culture medium. The cells were counted when untreated control cells reached the maximum cell density per unit of surface area of a culture flask (monolayer), and their number was set as 100%. The proliferative activity of all of the studied cell cultures exposed to sulfatase inhibitors was determined in triplicate.
# [2] = Hormonal effect: uterine body weight in tumor-bearing mice; assay type: in vivo, mouse
# [3] = test system: FVB mice transgenic for HER-2/neu; experiment: Acute oral toxicity, OECD 423 test; assay type: in vivo
# Experimental: 12 female mice were used in the experiment.
# The dosage form for administration was prepared ex tempore.
# No deaths were detected either.
# Further the observations were made once per day.
# The medicament was administered in 2 steps with a break of 3 hours in a volume of 0.1 ml per 10 g of a body weight per step at the concentration of 100 mg/ml, because the suspension in oil is thicker at higher concentrations and precludes the medicament to be administered through a gavage. […] Regardless of the group the width of the palpebral fissure of the animals was almost unchanged during the entire observation period. No pathological discharges from the eyes were detected. The nose was pink, moderately moist without pathological discharges. The fur of all mice was neat and shiny without bald spots. A 3% decrease of the animals body weight was registered on Day 2 and a 4% weight decrease on Day 7 from the initial weight (Table 3).
# [4] = test system: FVB mice transgenic for HER-2/neu; experiment: Acute oral toxicity, OECD 423 test; assay type: in vivo; remark: listed apart in the source
# [5] = Acute oral toxicity, OECD 423 test; assay type: in vivo; conditions: female, FVB transgenic for HER-2/neu, mouse, in vivo, po, oral (i.g.), OECD 423
# [6] = test system: patients having metastases spread into axillary lymph nodes; experiment: Chemotherapy of patients with axillary lymph node metastases; assay type: in vivo, human
# [7] = test system: passaged human tumor of triple-negative breast cancer; experiment: Animal models with passaged human triple-negative breast tumor; assay type: in vivo
# [8] = test system: uterine body; experiment: Hormonal effect: uterine body weight in tumor-bearing mice; assay type: in vivo, mouse
# Experimental: To estimate the hormonal effect of the medicament, the weight of the uterine body without uterine horns was measured (Table 9).
# [9] = test system: MDA-MB-231 line of cells of triple-negative breast cancer; experiment: Cell growth inhibition, MDA-MB-231; assay type: cell-based; conditions: Homo sapiens
structure (smiles),measurement,setting,value
"C[C@H]1Oc2cc(OS(N)(=O)=O)ccc2[C@H]2CC[C@]3(C)C(=O)CCC[C@H]3[C@H]21 [compound of formula (1), 3-O-sulphamoyloxy-7β-methyl-D-homo-6-oxa-8α-estra-1,3,5(10)-trien-17a-one]",Proliferation of MCF-7 tumor cells,[1],completely blocks the proliferation
same,Body weight,"[2]; 20 mg/kg, all mice",30.2 ± 1.2 g
same,Body weight,"[2]; 20 mg/kg, estrous phase D",30.3 ± 1.8 g
same,Body weight,"[2]; 20 mg/kg, estrous phase E",30.1 ± 1.7 g
same,Body weight,"[2]; 100 mg/kg, all mice",30.3 ± 0.8 g
same,Body weight,"[2]; 100 mg/kg, estrous phase D",33.1 ± 4.5 g
same,Body weight,"[2]; 100 mg/kg, estrous phase E",29.6 ± 0.5 g
same,"Body weight, individual mice","[3]; 2000 mg/kg i.g. (title of Table 3), Day 1 (before administration), listed as medicament",26.0 and 28.4 and 27.7 and 26.2 (2×) and 28.3
same,"Body weight, average","[3]; 2000 mg/kg i.g., Day 1 (before administration)",27.1 g
same,"Body weight, individual mice","[3]; 2000 mg/kg i.g., Day 2, listed as medicament, in g (unit assumed)",25.7 and 27.7 and 27.0 and 25.3 and 27.4 and 24.7
same,"Body weight, individual mice","[3]; 2000 mg/kg i.g., Day 7, listed as medicament, in g (unit assumed)",25.0 and 25.8 and 29.6 and 24.6 and 27.6 and 25.7
same,"Body weight, individual mice","[3]; 2000 mg/kg i.g., Day 14, listed as medicament, in g (unit assumed)",25.1 and 28.3 and 28.0 and 25.9 and 29.1 and 26.5
same,Decrease of body weight from the initial weight,"[3]; 2000 mg/kg, Day 2",3%
same,LD50,"[3]; oral (i.g.), OECD 423, listed as anti-cancer agent",> 5000 mg/kg
same,Hazard category according to the OECD 423 test,"[3]; oral (i.g.), listed as anti-cancer agent",5th
same,Hazard category according to the OECD 423 test,"[3]; oral (i.g.), listed as medicament",5th or non-classified and 5th or unclassified
same,Lethal effects (dead/total),[4]; 300 mg/kg single i.g. dose,0/6
same,"Body weight, average","[4]; 300 mg/kg single i.g. dose, Day 1 (before administration)",28.7 g
same,"Body weight, individual mice","[4]; 300 mg/kg single i.g. dose, Day 1 (before administration), listed as medicament",26.4 and 28.2 and 30.0 and 29.0 (2×) and 29.5
same,"Body weight, average","[4]; 300 mg/kg single i.g. dose, Day 2",28.8 g
same,"Body weight, individual mice","[4]; 300 mg/kg single i.g. dose, Day 2, listed as medicament, in g (unit assumed)",26.4 and 28.0 and 30.8 and 29.6 and 28.6 and 29.2
same,"Body weight, average","[4]; 300 mg/kg single i.g. dose, Day 7",29.6 g
same,"Body weight, individual mice","[4]; 300 mg/kg single i.g. dose, Day 7, listed as medicament, in g (unit assumed)",27.0 and 28.4 and 30.8 and 31.2 and 30.4 and 29.6
same,"Body weight, average","[4]; 300 mg/kg single i.g. dose, Day 14",29.6 g
same,"Body weight, individual mice","[4]; 300 mg/kg single i.g. dose, Day 14, listed as medicament, in g (unit assumed)",27.2 and 28.6 and 30.3 and 31.0 and 30.6 and 29.8
same,Lethal effects (dead/total),"[4]; 300 mg/kg single i.g. dose, listed as medicament",no animals deaths
same,"Average body weight, % from baseline","[4]; 300 mg/kg, Day 2",(0) %
same,"Average body weight, % from baseline","[4]; 300 mg/kg, Day 7",(3) %
same,"Average body weight, % from baseline","[4]; 300 mg/kg, Day 14",(3) %
same,Visual signs of intoxication,"[4]; 300 mg/kg, entire observation period",None of the animals exhibited visual signs of intoxication
same,Clinical signs of intoxication,[4]; 2000 mg/kg,No clinical signs of intoxication were observed
same,Lethal effects (dead/total),[4]; 2000 mg/kg i.g.,0/6
same,"Body weight, average","[4]; 2000 mg/kg i.g., Day 2",26.3 g
same,"Body weight, average","[4]; 2000 mg/kg i.g., Day 7",25.9 g
same,"Body weight, average","[4]; 2000 mg/kg i.g., Day 14",27.2 g
same,"Average body weight, % from baseline","[4]; 2000 mg/kg, Day 2",(−3) %
same,"Average body weight, % from baseline","[4]; 2000 mg/kg, Day 7",(−4) %
same,Decrease of body weight from the initial weight,"[4]; 2000 mg/kg, Day 7",4%
same,"Average body weight, % from baseline","[4]; 2000 mg/kg, Day 14",(0) %
same,Macroscopic changes of the internal organs at autopsy,[4]; Day 15,no changes of the internal organs were detected
same,LD50 at 14 days,[5],≥ 5000 mg/kg
same,Overall survival rate,[6]; as compared to the Tamoxifen treated group,increase the overall survival rate
same,Prolongation of recurrence-free survival rate,[6]; as compared to the untreated group,11%
same,Action compared to Tamoxifen and Letrozole,[7],better action
same,Uterine body weight,"[8]; 20 mg/kg, all mice",48 ± 5 mg
same,Uterine body weight,"[8]; 20 mg/kg, estrous phase D",49 ± 16 mg
same,Uterine body weight,"[8]; 20 mg/kg, estrous phase E",47 ± 7 mg
same,Uterine body weight,"[8]; 100 mg/kg, all mice",50 ± 6 mg
same,Uterine body weight,"[8]; 100 mg/kg, estrous phase D",26 ± 12 mg
same,Uterine body weight,"[8]; 100 mg/kg, estrous phase E",56 ± 5 mg
same,Hormonal (uterotropic) effect on the uterus,"[8]; uterine body weight versus control group, listed as medicament",no uterotropic activity; also recorded: did not differ from that of the control group
same,pIC50,[9],5.32
